Molecular target: T1, MC4 (Homo sapiens, UniProt P32245)
T1 construct: purchased Perkin Elmer BioSignal; host or cells: HEK 293
Assay: GPCR radioligand binding (RLB) assay, melanocortin MC4, [125I]NDP-αMSH
Settings: for MC4 Inhibition at 1.0 Micromolar: 1.0 micromolar compound; for MC4 inhibition at 10 micromolar: 10 micromolar compound, recombinant human receptor membranes (HEK 293)
Method: Recombinant human receptors expressed in HEK 293 cells were used for all experiments. Receptor membrane preparations were purchased from Perkin Elmer BioSignal. The labelled ligand used in somatostatin GPCR RLB assays was [^125I]SST-14 and in melanocortin assays was [^125I]NDP-αMSH. All assays were done in a 96-well plate format using either glass fiber filter mats or filter plates. All reagents purchased were of the highest quality.
Specific assay buffer, incubation and washing conditions were optimized for each receptor however they all followed the same general format. The procedures for both filter mat and filter plate formats are based on the receptor manufacturers recommendations or those described extensively in the literature. The procedures are briefly outlined below.
In assays where filter mats are used we incubate receptor membranes, assay buffer and [^125I] labelled ligand in 96 well microplates. Add compounds to incubation mixture and continue incubation for optimized period. Presoak Filter mat GF/B in 0.5% PEI for ˜2 hr at 4° C. On completion of assay mixture incubation add additional 100 μL/well of assay buffer immediately prior to filtration. Filter the assay mixture onto the GF/B filter mat using a cell harvester. Dry the filter mats prior to sealing them into a scintillation counting bag with scintillant. Radioactivity in each well is detected by liquid scintillation counting.
In assays where filter plates are used Multiscreen glass fiber filter plates (Millipore, Cat No MAFCNOB10) are precoated with 0.5% PEI for ˜2 hr at 4° C. All wells are then washed with 200 µl/well assay buffer and filtered using the Multiscreen Separation System. Subsequently receptor membranes, assay buffer and labelled ligands are added to the wells and equilibrated. Compounds for testing are then added to the mixture and incubation is continued for an optimized time. Plates are then put into the Multiscreen Separation System and the assay mixture is filtered through the plate under vacuum. Each well is then washed several times with assay buffer. Plates are then dried prior to putting sealing tape onto the bottom of the plate. Scintillant is added to each well and radioactivity measured by liquid scintillation counting.
Raw data was analysed according to standard methods using either GraphPad Prism software or IDDBS ActivityBase software.

[1] = 4.0 Micromolar, Example Library 13
[2] = 4.0 Micromolar, Example Library 10
[3] = 4.0 Micromolar, Example Library 12
[4] = 4.0 Micromolar, Example Library 11

T1 sequence (P32245 whole entry): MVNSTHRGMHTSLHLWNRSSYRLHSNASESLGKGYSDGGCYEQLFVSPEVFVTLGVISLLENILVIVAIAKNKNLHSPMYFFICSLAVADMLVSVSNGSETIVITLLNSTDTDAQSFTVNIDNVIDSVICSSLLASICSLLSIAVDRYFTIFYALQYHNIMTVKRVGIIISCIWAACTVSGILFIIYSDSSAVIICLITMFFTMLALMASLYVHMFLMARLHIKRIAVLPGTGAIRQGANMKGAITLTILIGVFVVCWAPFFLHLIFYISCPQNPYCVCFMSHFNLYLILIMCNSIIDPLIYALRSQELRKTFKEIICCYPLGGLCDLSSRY

Question: Which “MC4 Inhibition at 4.0 Micromolar” value [1] does the source give for N=C(N)NCCC(=O)NC1C(OCc2ccc(Cl)cc2)OC(COCc2ccc3ccccc3c2)C(O)C1OCc1ccc2ccccc2c1 (stereo not shown) [Compound 491] here?
Answer: + (Indicates inhibition greater than . . . 50%)

Question: For NCCCC(=O)N[C@H]1C(OCc2ccc3ccccc3c2)O[C@H](COCc2ccc3ccccc3c2)[C@@H](O)[C@@H]1OCc1ccc2ccccc2c1 (stereo partly shown) [Compound 369], which “MC4 Inhibition at 4.0 Micromolar” value [2] is on record?
Answer: + (Indicates inhibition greater than . . . 50%)

Question: How did the “MC4 Inhibition at 4.0 Micromolar” value [2] turn out when NCCCC(=O)N[C@H]1C(OCc2ccc3ccccc3c2)O[C@H](COCc2ccc(Cl)cc2)[C@@H](O)[C@@H]1OCc1ccc2ccccc2c1 (single isomer, unassigned) [Compound 370] was run?
Answer: + (Indicates inhibition greater than . . . 50%)

Question: Which “MC4 Inhibition at 1.0 Micromolar” value does the source give for NCCC(=O)NC1O[C@H](CO)[C@@H](O)[C@H](OCc2ccc(Cl)cc2)[C@H]1NC(=O)c1ccccc1 (stereo partly shown) [Compound 503] here?
Answer: + (Indicates inhibition greater than . . . 50%)

Question: How did the “MC4 inhibition at 10 micromolar” value turn out when CO[C@H]1[C@H](O)[C@@H](COCc2ccc3ccccc3c2)OC(OCCc2ccccc2)[C@@H]1NC(=O)CNC(=N)N (stereo partly shown) [Compound 100] was run?
Answer: + (Indicates inhibition greater than . . . 50%)

Question: How did the “MC4 Inhibition at 4.0 Micromolar” value [3] turn out when N=C(N)NCC(=O)N[C@H]1C(OCc2ccccc2)O[C@H](COCc2ccc3ccccc3c2)[C@@H](O)[C@@H]1OCc1ccc2ccccc2c1 (stereo partly shown) [Compound 437] was run?
Answer: + (Indicates inhibition greater than . . . 50%)

Question: Which “MC4 inhibition at 10 micromolar” value does the source give for CSC1OC(COCc2ccc3ccccc3c2)C(O)C(OCc2ccc(-c3ccccc3)cc2)C1NC(=O)CN (stereo not shown) [Compound 185] here?
Answer: + (Indicates inhibition greater than . . . 50%)

Question: How did the “MC4 Inhibition at 4.0 Micromolar” value [2] turn out when NCCC(=O)N[C@H]1C(OCc2ccc3ccccc3c2)O[C@H](COCc2ccc(Cl)cc2)[C@@H](O)[C@@H]1OCc1ccc2ccccc2c1 (stereo partly shown) [Compound 360] was run?
Answer: + (Indicates inhibition greater than . . . 50%)

Question: Which “MC4 Inhibition at 4.0 Micromolar” value [1] does the source give for N=C(N)NCC(=O)NC1C(OCc2ccc(Cl)cc2)OC(COCc2ccccc2)C(O)C1OCc1ccc2ccccc2c1 (stereo not shown) [Compound 483] here?
Answer: + (Indicates inhibition greater than . . . 50%)

Question: For NCCCC(=O)N[C@H]1C(OCc2ccc(Cl)cc2)O[C@H](COCc2ccccc2)[C@@H](O)[C@@H]1OCc1ccc2ccccc2c1 (single isomer, unassigned) [Compound 391], which “MC4 Inhibition at 4.0 Micromolar” value [2] is on record?
Answer: + (Indicates inhibition greater than . . . 50%)

Question: With CSC1O[C@H](COCc2cccc(N)c2)[C@@H](O)[C@H](OCc2ccccc2)[C@H]1NC(=O)/C=C/c1ccccc1 (stereo partly shown) [Compound 335] as the molecule, how does the “MC4 inhibition at 10 micromolar” value read?
Answer: + (Indicates inhibition greater than . . . 50%)

Question: How did the “MC4 inhibition at 10 micromolar” value turn out when COC1C(O)C(COCc2ccc(-c3ccccc3)cc2)OC(OCc2ccccc2)C1NC(=O)CCCNC(=N)N (stereo not shown) [Compound 79] was run?
Answer: + (Indicates inhibition greater than . . . 50%)

Question: For N=C(N)NCC(=O)N[C@H]1C(OCc2ccccc2)O[C@H](COCc2ccc(Cl)cc2)[C@@H](O)[C@@H]1OCc1ccc(-c2ccccc2)cc1 (stereo partly shown) [Compound 444], which “MC4 Inhibition at 4.0 Micromolar” value [3] is on record?
Answer: + (Indicates inhibition greater than . . . 50%)

Question: Which “MC4 Inhibition at 4.0 Micromolar” value [4] does the source give for NCCCC(=O)NC1C(OCc2ccccc2)OC(COCc2ccccc2)C(O)C1OCc1ccc2ccccc2c1 (stereo not shown) [Compound 409] here?
Answer: + (Indicates inhibition greater than . . . 50%)

Question: COC1C(O)C(COCc2ccc(Cl)cc2)OC(OCc2ccc(-c3ccccc3)cc2)C1NC(=O)CCNC(=N)N (stereo not shown) [Compound 64] was tested. Which “MC4 inhibition at 10 micromolar” value did it give?
Answer: + (Indicates inhibition greater than . . . 50%)

Question: NCCCC(=O)NC1C(OCc2ccc3ccccc3c2)OC(COCc2ccc(Cl)cc2)C(O)C1OCc1ccc(Cl)cc1 (stereo not shown) [Compound 424] was tested. Which “MC4 Inhibition at 4.0 Micromolar” value [4] did it give?
Answer: + (Indicates inhibition greater than . . . 50%)

Question: How did the “MC4 inhibition at 10 micromolar” value turn out when CSC1O[C@H](COCc2cccc(N)c2)[C@@H](O)[C@H](OCc2ccc(Cl)cc2)[C@H]1NC(=O)/C=C/c1ccccc1 (stereo partly shown) [Compound 340] was run?
Answer: + (Indicates inhibition greater than . . . 50%)

Question: For CSC1OC(COC(=O)Cc2ccccc2)C(O)C(OCc2cccc(N)c2)C1NCc1ccccc1 (stereo not shown) [Compound 308], which “MC4 inhibition at 10 micromolar” value is on record?
Answer: + (Indicates inhibition greater than . . . 50%)

Question: NCCCC(=O)N[C@H]1C(OCc2ccc(Cl)cc2)O[C@H](COCc2ccc(Cl)cc2)[C@@H](O)[C@@H]1OCc1ccc2ccccc2c1 (single isomer, unassigned) [Compound 393] was tested. Which “MC4 Inhibition at 4.0 Micromolar” value [2] did it give?
Answer: + (Indicates inhibition greater than . . . 50%)

Question: NCCC(=O)N[C@H]1C(OCc2ccc3ccccc3c2)O[C@H](COCc2ccc3ccccc3c2)[C@@H](O)[C@@H]1OCc1ccccc1 (stereo partly shown) [Compound 361] was tested. Which “MC4 Inhibition at 4.0 Micromolar” value [2] did it give?
Answer: + (Indicates inhibition greater than . . . 50%)

Question: For NCCCC(=O)N[C@H]1C(OCc2ccc(Cl)cc2)O[C@H](COCc2ccc3ccccc3c2)[C@@H](O)[C@@H]1OCc1ccc2ccccc2c1 (single isomer, unassigned) [Compound 389], which “MC4 Inhibition at 4.0 Micromolar” value [2] is on record?
Answer: + (Indicates inhibition greater than . . . 50%)

Question: NCC(=O)N[C@H]1C(OCc2ccc(Cl)cc2)O[C@H](COCc2ccccc2)[C@@H](O)[C@@H]1OCc1ccc2ccccc2c1 (stereo partly shown) [Compound 380] was tested. Which “MC4 Inhibition at 4.0 Micromolar” value [2] did it give?
Answer: + (Indicates inhibition greater than . . . 50%)

Question: With CSC1O[C@H](COCc2cccc(N)c2)[C@@H](O)[C@H](OCc2ccccc2)[C@H]1NC(=O)c1ccccc1 (stereo partly shown) [Compound 333] as the molecule, how does the “MC4 inhibition at 10 micromolar” value read?
Answer: + (Indicates inhibition greater than . . . 50%)

Question: N=C(N)NCC(=O)N[C@H]1C(OCc2ccc(-c3ccccc3)cc2)O[C@H](COCc2ccc(Cl)cc2)[C@@H](O)[C@H]1OCc1ccc2ccccc2c1 (stereo partly shown) [Compound 467] was tested. Which “MC4 Inhibition at 4.0 Micromolar” value [1] did it give?
Answer: + (Indicates inhibition greater than . . . 50%)

Question: How did the “MC4 Inhibition at 4.0 Micromolar” value (4.0 micromolar compound) turn out when COC1C(O)C(COCc2ccc3ccccc3c2)OC(OCc2ccc(Cl)cc2)C1NCC(=O)C1CCCN1 (stereo not shown) [Compound 343] was run?
Answer: + (Indicates inhibition greater than . . . 50%)

Question: With CO[C@H]1[C@H](O)[C@@H](COCc2ccc(-c3ccccc3)cc2)OC(OCc2cccc(O)c2)[C@@H]1NC(=O)CCNC(=N)N (stereo partly shown) [Compound 113] as the molecule, how does the “MC4 inhibition at 10 micromolar” value read?
Answer: + (Indicates inhibition greater than . . . 50%)

Question: With NCCC(=O)NC1C(OCc2ccc3ccccc3c2)OC(COCc2ccccc2)C(O)C1OCc1ccc(Cl)cc1 (stereo not shown) [Compound 414] as the molecule, how does the “MC4 Inhibition at 4.0 Micromolar” value [4] read?
Answer: + (Indicates inhibition greater than . . . 50%)

Question: How did the “MC4 Inhibition at 4.0 Micromolar” value [1] turn out when N=C(N)NCC(=O)NC1C(OCc2ccc(Cl)cc2)OC(COCc2ccc(Cl)cc2)C(O)C1OCc1ccc(-c2ccccc2)cc1 (stereo not shown) [Compound 487] was run?
Answer: + (Indicates inhibition greater than . . . 50%)

Question: With CC(=O)N[C@H]1C(NC(=O)CCN)O[C@H](CO)[C@@H](O)[C@@H]1OCc1cccc2ccccc12 (stereo partly shown) [Compound 500] as the molecule, how does the “MC4 Inhibition at 1.0 Micromolar” value read?
Answer: + (Indicates inhibition greater than . . . 50%)

Question: For N=C(N)NCCC(=O)N[C@H]1C(OCc2ccccc2)O[C@H](COCc2ccc3ccccc3c2)[C@@H](O)[C@@H]1OCc1ccc(Cl)cc1 (stereo partly shown) [Compound 446], which “MC4 Inhibition at 4.0 Micromolar” value [3] is on record?
Answer: + (Indicates inhibition greater than . . . 50%)

Question: Which “MC4 Inhibition at 4.0 Micromolar” value [1] does the source give for N=C(N)NCCC(=O)NC1C(OCc2ccc(Cl)cc2)OC(COCc2ccccc2)C(O)C1OCc1ccc(Cl)cc1 (stereo not shown) [Compound 489] here?
Answer: + (Indicates inhibition greater than . . . 50%)

Question: For NCCCC(=O)NC1C(OCc2ccc3ccccc3c2)OC(COCc2ccc3ccccc3c2)C(O)C1OCc1ccc(Cl)cc1 (stereo not shown) [Compound 422], which “MC4 Inhibition at 4.0 Micromolar” value [4] is on record?
Answer: + (Indicates inhibition greater than . . . 50%)

Question: How did the “MC4 inhibition at 10 micromolar” value turn out when COC1C(O)C(COCc2ccc(Cl)cc2)OC(OCc2ccccc2)C1NC(=O)CCCNC(=N)N (stereo not shown) [Compound 82] was run?
Answer: + (Indicates inhibition greater than . . . 50%)

Question: For N=C(N)NCC(=O)NC1C(OCc2ccc(Cl)cc2)OC(COCc2ccc3ccccc3c2)C(O)C1OCc1ccc2ccccc2c1 (stereo not shown) [Compound 482], which “MC4 Inhibition at 4.0 Micromolar” value [1] is on record?
Answer: + (Indicates inhibition greater than . . . 50%)

Question: CO[C@H]1[C@H](O)[C@@H](COCc2ccc3ccccc3c2)OC(OCc2cccc(O)c2)[C@@H]1NC(=O)CCNC(=N)N (stereo partly shown) [Compound 116] was tested. Which “MC4 inhibition at 10 micromolar” value did it give?
Answer: + (Indicates inhibition greater than . . . 50%)

Question: For CC(=O)N[C@H]1C(NC(=O)CCN)O[C@H](CO)[C@@H](O)[C@@H]1OCc1ccccc1 (stereo partly shown) [Compound 498], which “MC4 Inhibition at 1.0 Micromolar” value is on record?
Answer: + (Indicates inhibition greater than . . . 50%)

Question: N=C(N)NCC(=O)N[C@H]1C(OCc2ccccc2)O[C@H](COCc2ccc3ccccc3c2)[C@@H](O)[C@@H]1OCc1ccc(-c2ccccc2)cc1 (stereo partly shown) [Compound 441] was tested. Which “MC4 Inhibition at 4.0 Micromolar” value [3] did it give?
Answer: + (Indicates inhibition greater than . . . 50%)

Question: NCC(=O)N[C@H]1C(OCc2ccc3ccccc3c2)O[C@H](COCc2ccc(Cl)cc2)[C@@H](O)[C@@H]1OCc1ccccc1 (stereo partly shown) [Compound 364] was tested. Which “MC4 Inhibition at 4.0 Micromolar” value [2] did it give?
Answer: + (Indicates inhibition greater than . . . 50%)

Question: With COC1C(O)C(COCc2ccc(Cl)cc2)OC(OCc2ccccc2)C1NC(=O)CCCN (stereo not shown) [Compound 81] as the molecule, how does the “MC4 inhibition at 10 micromolar” value read?
Answer: + (Indicates inhibition greater than . . . 50%)

Question: CO[C@H]1[C@H](O)[C@@H](COCc2ccc(Cl)cc2)OC(OCCc2ccccc2)[C@@H]1NC(=O)CNC(=N)N (stereo partly shown) [Compound 104] was tested. Which “MC4 inhibition at 10 micromolar” value did it give?
Answer: + (Indicates inhibition greater than . . . 50%)

Reference: patent US7994140B2, “Classes of compounds that interact with GPCRs” (Alchemia Limited, priority 2002, dated 2011)
